Converted amounts (≈) assume the structure as drawn. Non-standard residues stand in square brackets, D forms with d. Residues, ends and D or L forms follow the SMILES beside them. Ava = NCCCCC(=O)O
Columns and labels:
C. auris = details: 24 h
C. krusei = details: 24 h
C. dubliniensis = details: 24 h
Fusarium spp. = details: 48 h
C. gattii = details: 72 h
C. parapsilosis = details: 24 h
C. glabrata = details: 24 h
Scedosporium spp. = details: 72 h
C. albicans = details: 24 h
C. tropicalis = details: 24 h
C. neoformans = details: 72 h
in vitro = details: human, EC50 cytotoxicity in HepG2, intracellular ATP assay
[1] = test system: Pseudomonas aeruginosa ATCC 27853; assay type: cell-based
[2] = test system: Escherichia coli ATCC 25922; assay type: cell-based
[3] = test system: Staphylococcus aureus ATCC 29213; assay type: cell-based

N=C(N)NCCC[C@@H](N)C(=O)N[C@@H](CCCNC(=N)N)C(=O)N[C@H](CCCNC(=N)N)C(=O)NCCCCC(=O)N[C@H](CCCNC(=N)N)C(=O)N[C@@H](CCCNC(=N)N)C(=O)N[C@H](CCCNC(=N)N)C(=O)NCCCCC(=O)N[C@H](CCCNC(=N)N)C(=O)N[C@@H](CCCNC(=N)N)C(=O)N[C@H](CCCNC(=N)N)C(=O)NCCCCC(=O)N[C@H](CCCNC(=N)N)C(=O)N[C@@H](CCCNC(=N)N)C(=O)N[C@H](CCCNC(=N)N)C(N)=O [SEQ ID NO: 22, rRr-(Ava)-rRr-(Ava)-rRr-(Ava)-rRr-NH2] (H-[dR]R[dR][Ava][dR]R[dR][Ava][dR]R[dR][Ava][dR]R[dR]-NH2)
MIC Range Cryptococcus spp. (Cryptococcus spp.): 0.5 to 1 µg/mL
MIC C. auris (C. auris): 2 µg/mL (≈ 0.914 µM)
MIC C. krusei (C. krusei): 1 µg/mL (≈ 0.457 µM)
MIC C. dubliniensis (C. dubliniensis): 0.25 µg/mL (≈ 0.114 µM)
MIC Range Fusarium spp. (Fusarium spp.): 0.5 to 16 µg/mL
MIC C. gattii (C. gattii): 0.5 µg/mL (≈ 0.228 µM)
MIC C. parapsilosis (C. parapsilosis): 0.25 µg/mL (≈ 0.114 µM)
MIC C. glabrata (C. glabrata): 0.5 µg/mL (≈ 0.228 µM)
Activity at 24 h MIC50 against Candida spp. (Candida spp.): 1 µg/mL
Activity at 24 h MIC90 against Candida spp. (Candida spp.): 8 µg/mL
Activity at 48 h MIC50 against Candida spp. (Candida spp.): 2 µg/mL
Activity at 48 h MIC90 against Candida spp. (Candida spp.): 32 µg/mL
MIC Range Scedosporium spp. (Scedosporium spp.): 1 to 2 µg/mL
MIC Range Lomentospora prolificans (Lomentospora prolificans): 2 µg/mL (≈ 0.914 µM)
MIC C. albicans (C. albicans): 0.5 µg/mL (≈ 0.228 µM)
MIC Range Filamentous Fungi (Filamentous Fungi): 0.5 to 16 µg/mL
MIC C. tropicalis (C. tropicalis): 0.5 µg/mL (≈ 0.228 µM)
MIC C. neoformans (C. neoformans): 1 µg/mL (≈ 0.457 µM)

N=C(N)NCCC[C@@H](N)C(=O)N[C@@H](CCCNC(=N)N)C(=O)N[C@H](CCCNC(=N)N)C(=O)N1CCC[C@H]1C(=O)N[C@H](CCCNC(=N)N)C(=O)N[C@@H](CCCNC(=N)N)C(=O)N1CCC[C@H]1C(=O)N[C@H](CCCNC(=N)N)C(=O)N[C@@H](CCCNC(=N)N)C(=O)N1CCC[C@H]1C(=O)N[C@H](CCCNC(=N)N)C(=O)N[C@@H](CCCNC(=N)N)C(=O)N[C@H](CCCNC(=N)N)C(N)=O [SEQ ID NO: 70, rRr-P-rR-P-rR-P-rRr-NH2] (H-[dR]R[dR]P[dR]RP[dR]RP[dR]R[dR]-NH2)
MIC Range Cryptococcus spp. (Cryptococcus spp.): 1 to 8 µg/mL
MIC C. auris (C. auris): >32 µg/mL
MIC C. krusei (C. krusei): 2 µg/mL (≈ 1.07 µM)
MIC C. dubliniensis (C. dubliniensis): 1 µg/mL (≈ 0.535 µM)
MIC C. gattii (C. gattii): 4 µg/mL (≈ 2.14 µM)
MIC C. parapsilosis (C. parapsilosis): 2 µg/mL (≈ 1.07 µM)
MIC C. glabrata (C. glabrata): 4 µg/mL (≈ 2.14 µM)
Activity at 24 h MIC50 against Candida spp. (Candida spp.): 4 µg/mL
Activity at 24 h MIC90 against Candida spp. (Candida spp.): >32 µg/mL
Activity at 48 h MIC50 against Candida spp. (Candida spp.): 8 µg/mL
Activity at 48 h MIC90 against Candida spp. (Candida spp.): >32 µg/mL
MIC Range Scedosporium spp. (Scedosporium spp.): 8 µg/mL (≈ 4.28 µM)
MIC Range Lomentospora prolificans (Lomentospora prolificans): 32 µg/mL (≈ 17.1 µM)
MIC C. albicans (C. albicans): 0.5 µg/mL (≈ 0.267 µM)
MIC C. tropicalis (C. tropicalis): 1 µg/mL (≈ 0.535 µM)
MIC C. neoformans (C. neoformans): 8 µg/mL (≈ 4.28 µM)

N=C(N)NCCC[C@@H](N)C(=O)N[C@@H](CCCNC(=N)N)C(=O)N[C@H](CCCNC(=N)N)C(=O)NCCCCC(=O)N[C@H](CCCNC(=N)N)C(=O)N[C@@H](CCCNC(=N)N)C(=O)NCCCCC(=O)N[C@H](CCCNC(=N)N)C(=O)N[C@@H](CCCNC(=N)N)C(=O)NCCCCC(=O)N[C@H](CCCNC(=N)N)C(=O)N[C@@H](CCCNC(=N)N)C(=O)N[C@H](CCCNC(=N)N)C(N)=O [SEQ ID NO: 28, rRr-(Ava)-rR-(Ava)-rR-(Ava)-rRr-NH2] (H-[dR]R[dR][Ava][dR]R[Ava][dR]R[Ava][dR]R[dR]-NH2)
MIC Range Cryptococcus spp. (Cryptococcus spp.): 2 to 8 µg/mL
MIC C. auris (C. auris): >32 µg/mL
MIC C. krusei (C. krusei): 8 µg/mL (≈ 4.26 µM)
MIC C. dubliniensis (C. dubliniensis): 1 µg/mL (≈ 0.533 µM)
MIC C. gattii (C. gattii): 4 µg/mL (≈ 2.13 µM)
MIC C. parapsilosis (C. parapsilosis): 0.5 µg/mL (≈ 0.266 µM)
MIC C. glabrata (C. glabrata): 4 µg/mL (≈ 2.13 µM)
Activity at 24 h MIC50 against Candida spp. (Candida spp.): 8 µg/mL
Activity at 24 h MIC90 against Candida spp. (Candida spp.): >32 µg/mL
Activity at 48 h MIC50 against Candida spp. (Candida spp.): 8 µg/mL
Activity at 48 h MIC90 against Candida spp. (Candida spp.): >32 µg/mL
MIC Range Scedosporium spp. (Scedosporium spp.): 4 µg/mL (≈ 2.13 µM)
MIC Range Lomentospora prolificans (Lomentospora prolificans): 32 µg/mL (≈ 17.1 µM)
MIC C. albicans (C. albicans): 2 µg/mL (≈ 1.07 µM)
MIC C. tropicalis (C. tropicalis): 1 µg/mL (≈ 0.533 µM)
MIC C. neoformans (C. neoformans): 8 µg/mL (≈ 4.26 µM)

N=C(N)NCCC[C@@H](N)C(=O)N[C@@H](CCCNC(=N)N)C(=O)N[C@H](CCCNC(=N)N)C(=O)N1CCC[C@H]1C(=O)N[C@H](CCCNC(=N)N)C(=O)N[C@@H](CCCNC(=N)N)C(=O)N[C@H](CCCNC(=N)N)C(=O)N1CCC[C@H]1C(=O)N[C@H](CCCNC(=N)N)C(=O)N[C@@H](CCCNC(=N)N)C(=O)N[C@H](CCCNC(=N)N)C(=O)N1CCC[C@H]1C(=O)N[C@H](CCCNC(=N)N)C(=O)N[C@@H](CCCNC(=N)N)C(=O)N[C@H](CCCNC(=N)N)C(N)=O [SEQ ID NO: 66, rRr-P-rRr-P-rRr-P-rRr-NH2] (H-[dR]R[dR]P[dR]R[dR]P[dR]R[dR]P[dR]R[dR]-NH2)
MIC Range Cryptococcus spp. (Cryptococcus spp.): 0.5 to 1 µg/mL
EC50 (in vitro): > 300 µg/mL
MIC C. auris (C. auris): 8 µg/mL (≈ 3.67 µM)
MIC C. krusei (C. krusei): 0.5 µg/mL (≈ 0.229 µM)
MIC C. dubliniensis (C. dubliniensis): 0.25 µg/mL (≈ 0.115 µM)
MIC Range Fusarium spp. (Fusarium spp.): 0.12 to 8 µg/mL
MIC C. gattii (C. gattii): 1 µg/mL (≈ 0.458 µM)
MIC C. parapsilosis (C. parapsilosis): 0.25 µg/mL (≈ 0.115 µM)
MIC C. glabrata (C. glabrata): 0.5 µg/mL (≈ 0.229 µM)
Activity at 24 h MIC50 against Candida spp. (Candida spp.): 0.5 µg/mL
Activity at 24 h MIC90 against Candida spp. (Candida spp.): 8 µg/mL
Activity at 48 h MIC50 against Candida spp. (Candida spp.): 0.5 µg/mL
Activity at 48 h MIC90 against Candida spp. (Candida spp.): 16 µg/mL
MIC Range Scedosporium spp. (Scedosporium spp.): 0.5 to 2 µg/mL
MIC Range Lomentospora prolificans (Lomentospora prolificans): 2 µg/mL (≈ 0.916 µM)
MIC C. albicans (C. albicans): 0.25 µg/mL (≈ 0.115 µM)
MIC Range Filamentous Fungi (Filamentous Fungi): 0.12 to 8 µg/mL
MIC C. tropicalis (C. tropicalis): 0.25 µg/mL (≈ 0.115 µM)
MIC C. neoformans (C. neoformans): 0.5 µg/mL (≈ 0.229 µM)

N=C(N)NCCC[C@@H](N)C(=O)N[C@@H](CCCNC(=N)N)C(=O)N[C@H](CCCNC(=N)N)C(=O)NCCCCC(=O)N[C@H](CCCNC(=N)N)C(=O)N[C@@H](CCCNC(=N)N)C(=O)N[C@H](CCCNC(=N)N)C(=O)NCCCCC(=O)N[C@H](CCCNC(=N)N)C(=O)N[C@@H](CCCNC(=N)N)C(=O)N[C@H](CCCNC(=N)N)C(=O)N[C@@H](CCCNC(=N)N)C(=O)NCCCCC(=O)N[C@H](CCCNC(=N)N)C(=O)N[C@@H](CCCNC(=N)N)C(=O)N[C@H](CCCNC(=N)N)C(=O)N[C@@H](CCCNC(=N)N)C(N)=O [SEQ ID NO: 18, rRr-(Ava)-rRr-(Ava)-rRrR-(Ava)-rRrR-NH2] (H-[dR]R[dR][Ava][dR]R[dR][Ava][dR]R[dR]R[Ava][dR]R[dR]R-NH2)
MIC Range Cryptococcus spp. (Cryptococcus spp.): 0.25 to 0.5 µg/mL
EC50 (in vitro): > 300 µg/mL
MIC C. auris (C. auris): 0.25 µg/mL (≈ 0.1 µM)
MIC C. krusei (C. krusei): 0.5 µg/mL (≈ 0.2 µM)
MIC C. dubliniensis (C. dubliniensis): 0.5 µg/mL (≈ 0.2 µM)
MIC Range Fusarium spp. (Fusarium spp.): 0.25 to 0.5 µg/mL
MIC C. gattii (C. gattii): 0.25 µg/mL (≈ 0.1 µM)
MIC C. parapsilosis (C. parapsilosis): 0.25 µg/mL (≈ 0.1 µM)
MIC C. glabrata (C. glabrata): 0.5 µg/mL (≈ 0.2 µM)
MIC Pseudomonas aeruginosa [1]: 64 µg/mL (≈ 25.6 µM)
Activity at 24 h MIC50 against Candida spp. (Candida spp.): 0.5 µg/mL
Activity at 24 h MIC90 against Candida spp. (Candida spp.): 1 µg/mL
Activity at 48 h MIC50 against Candida spp. (Candida spp.): 0.5 µg/mL
Activity at 48 h MIC90 against Candida spp. (Candida spp.): 2 µg/mL
MIC Escherichia coli [2]: 32 µg/mL (≈ 12.8 µM)
MIC Range Scedosporium spp. (Scedosporium spp.): 0.25 to 0.5 µg/mL
MIC Range Lomentospora prolificans (Lomentospora prolificans): 0.5 µg/mL (≈ 0.2 µM)
MIC Staphylococcus aureus [3]: 16 µg/mL (≈ 6.4 µM)
MIC C. albicans (C. albicans): 1 µg/mL (≈ 0.4 µM)
MIC Range Filamentous Fungi (Filamentous Fungi): 0.25 to 0.5 µg/mL
MIC C. tropicalis (C. tropicalis): 0.5 µg/mL (≈ 0.2 µM)
MIC C. neoformans (C. neoformans): 0.25 µg/mL (≈ 0.1 µM)
